Assay results taken from paper PMC6213981, “Crystal structures and kinetics of N-acetylneuraminate lyase from Fusobacterium nucleatum” (Acta Crystallographica. Section F, Structural Biology …, 2018).

Biological target: T1, FnNanA (Fusobacterium nucleatum, UniProt Q8RDN6)
T1 construct: gene nanA; pET300/NT-DEST, synthetic DNA, E. coli BL21 (DE3); tetramer
T1 sequence (Q8RDN6 1-290): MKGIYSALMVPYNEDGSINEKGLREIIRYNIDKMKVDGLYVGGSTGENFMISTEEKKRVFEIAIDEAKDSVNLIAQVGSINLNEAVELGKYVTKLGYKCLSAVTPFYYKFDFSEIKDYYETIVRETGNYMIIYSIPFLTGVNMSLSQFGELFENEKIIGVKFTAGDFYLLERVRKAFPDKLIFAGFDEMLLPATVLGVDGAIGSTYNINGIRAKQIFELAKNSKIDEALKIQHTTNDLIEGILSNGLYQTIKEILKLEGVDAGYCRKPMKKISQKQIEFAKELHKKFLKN
Assay: X-ray crystal structure, […] Å
Format: binding
Settings: covalent; Schiff base with Lys161 in active site; crystallised at pH 9.5, 277 K

CC(=O)C(=O)O [pyruvate]
X-ray crystal structure, 1.76 Å: N∊ atom of Lys161 is conjugated as a Schiff base to the C2 atom of pyruvate
